Measured values as given in PubChem BioAssay AID1963844 (Molecular Pharmacology Branch, DTP, NCI, 2024).

Test system: 422866-222-R5-J1-PDC complex spheroid viability
Test: Anticancer human tumor 422866-222-R5-J1-PDC patient-derived pancreatic adenocarcinoma cell line growth inhibition [POLQ]
Settings: for IC50: curve of first compound; for viability, T/C: stronger effect = lower value
Procedure, shortened: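 Complex spheroid viability model combining PDC tumour cells with endothelial (HUVEC) and MSC stromal cells. Novobiocin, ART-558 or RP6685 were tested singly and in combination with standard and investigational anticancer drugs. Each was titrated in half-log steps from near clinical Cmax, or from 10 microM where Cmax was unknown.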

[1] = second compound 0.0316 µM, first compound 0.0316 µM
[2] = second compound 0.0316 µM, first compound 0.1 µM
[3] = second compound 0.0316 µM, first compound 0.316 µM
[4] = second compound 0.0316 µM, first compound 1 µM
[5] = second compound 0.0316 µM, first compound 3.16 µM
[6] = second compound 0.0316 µM, first compound 10 µM
[7] = second compound 0.1 µM, first compound 0.0316 µM
[8] = second compound 0.1 µM, first compound 0.1 µM
[9] = second compound 0.1 µM, first compound 0.316 µM
[10] = second compound 0.1 µM, first compound 1 µM
[11] = second compound 0.1 µM, first compound 3.16 µM
[12] = second compound 0.1 µM, first compound 10 µM
[13] = second compound 0.316 µM, first compound 0.0316 µM
[14] = second compound 0.316 µM, first compound 0.1 µM
[15] = second compound 0.316 µM, first compound 0.316 µM
[16] = second compound 0.316 µM, first compound 1 µM
[17] = second compound 0.316 µM, first compound 3.16 µM
[18] = second compound 0.316 µM, first compound 10 µM
[19] = second compound 1 µM, first compound 0.0316 µM
[20] = second compound 1 µM, first compound 0.1 µM
[21] = second compound 1 µM, first compound 0.316 µM
[22] = second compound 1 µM, first compound 1 µM
[23] = second compound 1 µM, first compound 3.16 µM
[24] = second compound 1 µM, first compound 10 µM
[25] = second compound 3.16 µM, first compound 0.0316 µM
[26] = second compound 3.16 µM, first compound 0.1 µM
[27] = second compound 3.16 µM, first compound 0.316 µM
[28] = second compound 3.16 µM, first compound 1 µM
[29] = second compound 3.16 µM, first compound 3.16 µM
[30] = second compound 3.16 µM, first compound 10 µM
[31] = second compound 10 µM, first compound 0.0316 µM
[32] = second compound 10 µM, first compound 0.1 µM
[33] = second compound 10 µM, first compound 0.316 µM
[34] = second compound 10 µM, first compound 1 µM
[35] = second compound 10 µM, first compound 3.16 µM
[36] = second compound 10 µM, first compound 10 µM
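Further: spheroids exposed to compounds for one week before readout.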
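Wherever viability, T/C is given: percent of DMSO vehicle wells luminescence so 100% = untreated viability.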

## C=CC(=O)N1CCN(c2nc(=O)n(-c3c(C)ccnc3C(C)C)c3nc(-c4c(O)cccc4F)c(F)cc23)C(C)C1 (stereo not drawn) + Cc1cccc(N(C)C(=O)C2C(O)CCN2c2nc(C)cc(C(F)(F)F)c2C#N)c1
Second compound 0.0316 µM
  IC50: < 0.0316 µM
Second compound 0.1 µM
  IC50: < 0.0316 µM
Second compound 0.316 µM
  IC50: < 0.0316 µM
Second compound 1 µM
  IC50: < 0.0316 µM
Second compound 3.16 µM
  IC50: < 0.0316 µM
Second compound 10 µM
  IC50: < 0.0316 µM
[1]
  viability, T/C: 29.6%
[2]
  viability, T/C: 26.5%
[3]
  viability, T/C: 24.8%
[4]
  viability, T/C: 22.2%
[5]
  viability, T/C: 23.5%
[6]
  viability, T/C: 27%
[7]
  viability, T/C: 27.8%
[8]
  viability, T/C: 25.2%
[9]
  viability, T/C: 25%
[10]
  viability, T/C: 23.5%
[11]
  viability, T/C: 21.2%
[12]
  viability, T/C: 29.3%
[13]
  viability, T/C: 34.9%
[14]
  viability, T/C: 22.1%
[15]
  viability, T/C: 25.3%
[16]
  viability, T/C: 26%
[17]
  viability, T/C: 22.8%
[18]
  viability, T/C: 25.5%
[19]
  viability, T/C: 30.3%
[20]
  viability, T/C: 25.7%
[21]
  viability, T/C: 26.1%
[22]
  viability, T/C: 21.8%
[23]
  viability, T/C: 26.7%
[24]
  viability, T/C: 27.4%
[25]
  viability, T/C: 32.3%
[26]
  viability, T/C: 28.7%
[27]
  viability, T/C: 31.4%
[28]
  viability, T/C: 25.9%
[29]
  viability, T/C: 23.7%
[30]
  viability, T/C: 25.7%
[31]
  viability, T/C: 35.3%
[32]
  viability, T/C: 28%
[33]
  viability, T/C: 25.1%
[34]
  viability, T/C: 26%
[35]
  viability, T/C: 32%
[36]
  viability, T/C: 28.3%

## CC(C)n1c(=O)n(C)c2cnc3cc(F)c(-c4ccc(OCCCN5CCCCC5)nc4)cc3c21 + Cc1cccc(N(C)C(=O)C2C(O)CCN2c2nc(C)cc(C(F)(F)F)c2C#N)c1
Second compound 0.0316 µM
  IC50: > 10 µM
Second compound 0.1 µM
  IC50: > 10 µM
Second compound 0.316 µM
  IC50: > 10 µM
Second compound 1 µM
  IC50: > 10 µM
Second compound 3.16 µM
  IC50: > 10 µM
Second compound 10 µM
  IC50: > 10 µM
[1]
  viability, T/C: 105%
[2]
  viability, T/C: 101%
[3]
  viability, T/C: 105%
[4]
  viability, T/C: 124%
[5]
  viability, T/C: 106%
[6]
  viability, T/C: 64.9%
[7]
  viability, T/C: 91.6%
[8]
  viability, T/C: 108%
[9]
  viability, T/C: 106%
[10]
  viability, T/C: 115%
[11]
  viability, T/C: 96.3%
[12]
  viability, T/C: 60.4%
[13]
  viability, T/C: 117%
[14]
  viability, T/C: 101%
[15]
  viability, T/C: 104%
[16]
  viability, T/C: 114%
[17]
  viability, T/C: 79.5%
[18]
  viability, T/C: 67%
[19]
  viability, T/C: 100%
[20]
  viability, T/C: 112%
[21]
  viability, T/C: 96.2%
[22]
  viability, T/C: 111%
[23]
  viability, T/C: 98%
[24]
  viability, T/C: 59.5%
[25]
  viability, T/C: 115%
[26]
  viability, T/C: 115%
[27]
  viability, T/C: 96.9%
[28]
  viability, T/C: 118%
[29]
  viability, T/C: 79.9%
[30]
  viability, T/C: 66.9%
[31]
  viability, T/C: 115%
[32]
  viability, T/C: 90.5%
[33]
  viability, T/C: 94.5%
[34]
  viability, T/C: 90.7%
[35]
  viability, T/C: 80.5%
[36]
  viability, T/C: 60.3%

## CC1COCCN1c1cc(-c2ccnn2C)c2ccnc(-c3ccn[nH]3)c2n1 (stereo not drawn) + Cc1cccc(N(C)C(=O)C2C(O)CCN2c2nc(C)cc(C(F)(F)F)c2C#N)c1
Second compound 0.0316 µM
  IC50: 0.0316 µM
Second compound 0.1 µM
  IC50: > 10 µM
Second compound 0.316 µM
  IC50: > 10 µM
Second compound 1 µM
  IC50: > 10 µM
Second compound 3.16 µM
  IC50: 0.0316 µM
Second compound 10 µM
  IC50: 0.0316 µM
[1]
  viability, T/C: 82.3%
[2]
  viability, T/C: 55.7%
[3]
  viability, T/C: 49.3%
[4]
  viability, T/C: 37.8%
[5]
  viability, T/C: 72.3%
[6]
  viability, T/C: 83.1%
[7]
  viability, T/C: 87%
[8]
  viability, T/C: 55.3%
[9]
  viability, T/C: 49.1%
[10]
  viability, T/C: 44.5%
[11]
  viability, T/C: 65.4%
[12]
  viability, T/C: 73%
[13]
  viability, T/C: 91.8%
[14]
  viability, T/C: 59.6%
[15]
  viability, T/C: 43.9%
[16]
  viability, T/C: 38.6%
[17]
  viability, T/C: 62.4%
[18]
  viability, T/C: 79.8%
[19]
  viability, T/C: 77.5%
[20]
  viability, T/C: 73.6%
[21]
  viability, T/C: 34%
[22]
  viability, T/C: 42.5%
[23]
  viability, T/C: 73.7%
[24]
  viability, T/C: 73.7%
[25]
  viability, T/C: 75.7%
[26]
  viability, T/C: 55.8%
[27]
  viability, T/C: 49.5%
[28]
  viability, T/C: 43.7%
[29]
  viability, T/C: 74.3%
[30]
  viability, T/C: 85%
[31]
  viability, T/C: 74.3%
[32]
  viability, T/C: 58.2%
[33]
  viability, T/C: 46.7%
[34]
  viability, T/C: 36.5%
[35]
  viability, T/C: 70.3%
[36]
  viability, T/C: 94.8%

## CCCS(=O)(=O)Nc1ccc(F)c(C(=O)c2c[nH]c3ncc(-c4ccc(Cl)cc4)cc23)c1F + Cc1cccc(N(C)C(=O)C2C(O)CCN2c2nc(C)cc(C(F)(F)F)c2C#N)c1
Second compound 0.0316 µM
  IC50: > 10 µM
Second compound 0.1 µM
  IC50: > 10 µM
Second compound 0.316 µM
  IC50: > 10 µM
Second compound 1 µM
  IC50: > 10 µM
Second compound 3.16 µM
  IC50: > 10 µM
Second compound 10 µM
  IC50: > 10 µM
[1]
  viability, T/C: 92.3%
[2]
  viability, T/C: 115%
[3]
  viability, T/C: 122%
[4]
  viability, T/C: 156%
[5]
  viability, T/C: 214%
[6]
  viability, T/C: 102%
[7]
  viability, T/C: 93%
[8]
  viability, T/C: 99.1%
[9]
  viability, T/C: 111%
[10]
  viability, T/C: 138%
[11]
  viability, T/C: 200%
[12]
  viability, T/C: 102%
[13]
  viability, T/C: 92.6%
[14]
  viability, T/C: 105%
[15]
  viability, T/C: 135%
[16]
  viability, T/C: 164%
[17]
  viability, T/C: 143%
[18]
  viability, T/C: 94.9%
[19]
  viability, T/C: 98.5%
[20]
  viability, T/C: 104%
[21]
  viability, T/C: 124%
[22]
  viability, T/C: 145%
[23]
  viability, T/C: 192%
[24]
  viability, T/C: 94.8%
[25]
  viability, T/C: 99.4%
[26]
  viability, T/C: 105%
[27]
  viability, T/C: 138%
[28]
  viability, T/C: 163%
[29]
  viability, T/C: 205%
[30]
  viability, T/C: 107%
[31]
  viability, T/C: 84.4%
[32]
  viability, T/C: 97%
[33]
  viability, T/C: 124%
[34]
  viability, T/C: 149%
[35]
  viability, T/C: 188%
[36]
  viability, T/C: 79.2%
